From PubChem BioAssay (NCI)
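GI50 = concentration required for 50% inhibition of growth. The concentration for full growth arrest is given as TGI.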

What was measured:
Assay in all cases: inhibition of tumour cell growth, NCI panel, 384-well format
[1] = system: CCRF-CEM leukemia
[2] = system: 786-0 renal
[3] = system: UACC-62 melanoma
[4] = system: CAKI-1 renal
[5] = system: M14 melanoma
[6] = system: PC-3 prostate
[7] = system: SW-620 colon
[8] = system: BT-549 breast
[9] = system: MDA-MB-468 breast
[10] = system: HL-60(TB) leukemia
[11] = system: ACHN renal
[12] = system: NCI-H522 lung
[13] = system: U251 glioblastoma
[14] = system: MCF7 breast
[15] = system: OVCAR-8 ovarian
[16] = system: OVCAR-3 ovarian
[17] = system: A549 NSCLC
[18] = system: HOP-62 NSCLC
[19] = system: NCI-H23 lung
[20] = system: UO-31 renal
[21] = system: HT29 colon
[22] = system: HCT-15 colon
[23] = system: RXF 393 renal
[24] = system: SNB-75 CNS
[25] = system: A498 renal
[26] = system: SF-295 CNS
[27] = system: MALME-3M melanoma
[28] = system: NCI-H226 lung
[29] = system: NCI/ADR-RES ovarian
[30] = system: RPMI-8226 leukemia
[31] = system: HS 578T breast
[32] = system: SN12C renal
[33] = system: HCT-116 colon
[34] = system: SNB-19 CNS
[35] = system: SF-268 CNS
[36] = system: DU-145 prostate
[37] = system: MOLT-4 leukemia
[38] = system: LOX IMVI melanoma
[39] = system: SF-539 CNS
[40] = system: SK-OV-3 ovarian
[41] = system: KM12 colon

O=C(CCBr)N1CCN(C(=O)CCBr)CC1
GI50 [1]: 11.4 µM | TGI [1]: 24.2 µM | GI50 [2]: 33.1 µM | GI50 [3]: 15.1 µM | GI50 [4]: 33.3 µM | GI50 [5]: 25.8 µM | GI50 [6]: 82 µM | GI50 [7]: 87.6 µM | GI50 [8]: 40 µM | GI50 [9]: 9.42 µM | TGI [9]: 49 µM | GI50 [10]: 2.06 µM | TGI [10]: 5.92 µM | GI50 [11]: 24.6 µM | TGI [11]: 87.4 µM | GI50 [12]: 32.7 µM | GI50 [13]: 24 µM | GI50 [14]: 30.9 µM | GI50 [15]: 37.2 µM | GI50 [16]: 41.5 µM | GI50 [17]: 57.6 µM | GI50 [18]: 13.6 µM | TGI [18]: 42.3 µM | GI50 [19]: 34.7 µM | GI50 [20]: 74.1 µM | GI50 [21]: 91.5 µM | GI50 [22]: 40.8 µM | GI50 [23]: 44.4 µM | GI50 [24]: 20.9 µM | GI50 [25]: 70.1 µM | GI50 [26]: 21.8 µM | TGI [26]: 64.9 µM | GI50 [27]: 98.8 µM | GI50 [28]: 56.3 µM | GI50 [29]: 52.2 µM | GI50 [30]: 17 µM | GI50 [31]: 22.5 µM | GI50 [32]: 18.3 µM | GI50 [33]: 26.5 µM | GI50 [34]: 63 µM | GI50 [35]: 13.7 µM | GI50 [36]: 21.6 µM | GI50 [37]: 1.61 µM | TGI [37]: 3 µM | GI50 [38]: 39.9 µM | GI50 [39]: 24 µM | TGI [39]: 99 µM | GI50 [40]: 45.2 µM | GI50 [41]: 88.1 µM
